The structures appear in SMILES notation.

The assay addresses T1, human TRH-DE (Homo sapiens, UniProt Q9UKU6).
T1 construct: expressed in transfected cells; host or cells: Expi 293 cells (transient expression), membrane fraction
T1 sequence (Q9UKU6 1-1069): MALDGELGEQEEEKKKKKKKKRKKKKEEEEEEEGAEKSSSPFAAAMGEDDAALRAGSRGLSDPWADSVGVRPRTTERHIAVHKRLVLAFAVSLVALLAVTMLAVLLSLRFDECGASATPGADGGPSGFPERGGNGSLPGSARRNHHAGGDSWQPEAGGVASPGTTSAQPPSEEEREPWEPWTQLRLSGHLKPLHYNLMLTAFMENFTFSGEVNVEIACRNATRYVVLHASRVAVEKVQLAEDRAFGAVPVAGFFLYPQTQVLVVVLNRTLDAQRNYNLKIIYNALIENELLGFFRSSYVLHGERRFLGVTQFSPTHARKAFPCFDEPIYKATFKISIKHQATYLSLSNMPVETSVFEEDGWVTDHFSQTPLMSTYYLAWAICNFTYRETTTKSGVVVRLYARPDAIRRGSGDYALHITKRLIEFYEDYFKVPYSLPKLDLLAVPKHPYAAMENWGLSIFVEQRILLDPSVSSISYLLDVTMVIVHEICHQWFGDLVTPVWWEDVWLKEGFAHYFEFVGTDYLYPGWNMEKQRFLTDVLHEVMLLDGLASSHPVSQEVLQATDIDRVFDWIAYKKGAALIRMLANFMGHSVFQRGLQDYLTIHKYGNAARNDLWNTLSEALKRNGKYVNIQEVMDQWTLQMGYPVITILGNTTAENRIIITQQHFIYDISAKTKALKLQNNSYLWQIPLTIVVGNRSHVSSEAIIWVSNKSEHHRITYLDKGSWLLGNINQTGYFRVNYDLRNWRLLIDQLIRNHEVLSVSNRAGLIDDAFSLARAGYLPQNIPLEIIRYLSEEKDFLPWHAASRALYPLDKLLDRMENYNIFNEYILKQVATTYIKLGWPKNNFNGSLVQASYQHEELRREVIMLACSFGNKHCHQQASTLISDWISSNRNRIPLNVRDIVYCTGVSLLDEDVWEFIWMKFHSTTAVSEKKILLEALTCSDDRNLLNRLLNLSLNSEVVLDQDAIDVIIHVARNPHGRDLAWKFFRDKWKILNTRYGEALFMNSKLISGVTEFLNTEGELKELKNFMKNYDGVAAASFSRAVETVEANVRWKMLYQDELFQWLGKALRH
Description: TRH-DE inhibition test (RapidFire MS measurement of product Cyclo (His-Pro)). It is filed as biochemical. Conditions: membrane fraction of Expi 293 cells expressing human TRH-DE; 10 μM TRH substrate; room temperature, 2 hours; 16-point concentration test. On the procedure: The compounds described in “1. […] The enzyme inhibitory activity of each of the compounds was evaluated by measuring the amount of the product Cyclo (His-Pro) of the enzyme reaction using a RapidFire RF 365 HTMS system (manufactured by Agilent Technologies, Inc.) connected to a triple quadrupole mass spectrometer (API 4000, manufactured by SCIEX). A membrane fraction prepared from Expi 293 cells transiently expressing human TRH-DE was used as an enzyme. The membrane fraction was suspended in 4 μg/ml of a reaction buffer (50 mM sodium phosphate (pH 7.4), 25 mM NaCl, 0.01% Triton […], and 200 μM bacitracin) and mixed with the test compound at each concentration. 10 μM […]), which was a substrate, was added, and the mixture was reacted at room temperature for 2 hours. The reaction was stopped in the same amount of a solution of acetonitrile:methanol (1:1) containing 1 μM of the stable isotope Cyclo ([…]) as an internal standard, and the supernatant was collected after centrifugation. In the RapidFire RF 365 HTMS system, a portion of the supernatant was aspirated, loaded onto a Graphic Carbon column (manufactured by Agilent Technologies, Inc.) with a buffer A (water, 0.09% formic acid, 0.01% trifluoroacetic acid) and washed with ultrapure water. Next, washing was performed with acetonitrile. The contents in the column were eluted with a buffer B (80% acetonitrile, 0.09% formic acid, 0.01% trifluoroacetic acid) and injected into a mass spectrometer for analysis. […] The ESI voltage was set to 5,500 V and the temperature was set to 650° C. For the calculation of the inhibition rate, a Ratio value corrected by dividing the product amount by the internal standard amount was used. The inhibition rate (%) was calculated by % Inhibition={1-(Ratio value of sample-Ratio value of blank)/(Ratio value of control-Ratio value of blank)}×100. The IC50 value was calculated from the concentration reactivity test at 16 points.
For orientation: IC50 means the point on the concentration scale where inhibition reaches its midpoint. In turn, `C[C@@H]1COc2cc(N3CCC(C(F)(F)F)C3)ncc2C(=O)N1C1CC2(C1)CN(S(=O)(=O)c1ccccc1F)C2` (mixture of isomers) [Example 145] showed an IC50 of 1 nM. This lies in the single-digit nanomolar range. The same measure for `C[C@@H]1COc2cc(N3CCCC3C(F)(F)F)ncc2C(=O)N1C1CC2(C1)CN(S(=O)(=O)c1ccccc1F)C2` (mixture of isomers) [Example 146]: 1 nM. To `CC1CCCN(c2cc3c(cn2)C(=O)N(C2CC4(C2)CN(S(=O)(=O)c2ccccc2F)C4)[C@H](C)CO3)C1` (mixture of isomers) [Example 152] belongs 1 nM. To `C[C@@H]1COc2nc(N3CCOC(C(F)(F)F)C3)ncc2C(=O)N1C1CC2(C1)CN(S(=O)(=O)c1ccccc1F)C2` (mixture of isomers) [Example 385] belongs 13 nM. `CC1CN(c2ncc3c(n2)OC[C@@H](C)N(C2CC4(C2)CN(S(=O)(=O)c2ccccc2F)C4)C3=O)CCO1` (mixture of isomers) [Example 386] came in with an IC50 of 13 nM. The same measure for `C[C@@H]1COc2nc(N3CCC4(CCOC4)C3)ncc2C(=O)N1C1CC2(C1)CN(S(=O)(=O)c1ccccc1F)C2` (mixture of isomers) [Example 405]: 3 nM; for `C[C@@H]1COc2nc(N3CCCC34CCOC4)ncc2C(=O)N1C1CC2(C1)CN(S(=O)(=O)c1ccccc1F)C2` (mixture of isomers) [Example 406]: 6 nM; for `CC1CN(C2CC3(C2)CN(S(=O)(=O)c2ccccc2F)C3)C(=O)c2ncccc2O1` (racemic) [Example 2]: 1010 nM. The same measure for `CC1COc2ccc(F)nc2C(=O)N1C1CC2(C1)CN(S(=O)(=O)c1ccccc1F)C2` (racemic) [Example 9]: 14 nM.

The compound `CC1COc2cc(F)cnc2C(=O)N1C1CC2(C1)CN(S(=O)(=O)c1ccccc1F)C2` (racemic) [Example 10] came in with a half-maximal inhibitory concentration (IC50) of 12 nM. The IC50 values of the last two compounds are within 1.5-fold of each other. To `Cc1ccc2c(n1)C(=O)N(C1CC3(C1)CN(S(=O)(=O)c1ccccc1F)C3)C(C)CO2` (racemic) [Example 14] belongs 24 nM; to `Cc1cnc2c(c1)OCC(C)N(C1CC3(C1)CN(S(=O)(=O)c1ccccc1F)C3)C2=O` (racemic) [Example 15], 7 nM. `Cc1ccnc2c1OCC(C)N(C1CC3(C1)CN(S(=O)(=O)c1ccccc1F)C3)C2=O` (racemic) [Example 16] gave an IC50 of 20 nM. `CC1COc2ccnc(F)c2C(=O)N1C1CC2(C1)CN(S(=O)(=O)c1ccccc1F)C2` (racemic) [Example 20] came in with an IC50 of 17 nM.

Turning to `CC1COc2c(F)cncc2C(=O)N1C1CC2(C1)CN(S(=O)(=O)c1ccccc1F)C2` (racemic) [Example 21], it took 16 nM to reach half-maximal inhibition (IC50). To `CC1COc2ccnc(C(F)(F)F)c2C(=O)N1C1CC2(C1)CN(S(=O)(=O)c1ccccc1F)C2` (racemic) [Example 23] belongs 68 nM. The same measure for `CC1COc2nccc(F)c2C(=O)N1C1CC2(C1)CN(S(=O)(=O)c1ccccc1F)C2` (racemic) [Example 25]: 54 nM; for `CC1COc2ncc(F)cc2C(=O)N1C1CC2(C1)CN(S(=O)(=O)c1ccccc1F)C2` (racemic) [Example 26]: 33 nM. The same measure for `CC1COc2nc(F)ccc2C(=O)N1C1CC2(C1)CN(S(=O)(=O)c1ccccc1F)C2` (racemic) [Example 28]: 23 nM; for `Cc1ccnc2c1C(=O)N(C1CC3(C1)CN(S(=O)(=O)c1ccccc1F)C3)C(C)CO2` (racemic) [Example 29]: 50 nM.

`Cc1cnc2c(c1)C(=O)N(C1CC3(C1)CN(S(=O)(=O)c1ccccc1F)C3)C(C)CO2` (racemic) [Example 30] displayed a half-inhibitory concentration (IC50) of 15 nM. To `Cc1ccc2c(n1)OCC(C)N(C1CC3(C1)CN(S(=O)(=O)c1ccccc1F)C3)C2=O` (racemic) [Example 31] belongs 9 nM; to `CC1c2ccccc2CCC(=O)N1C1CC2(C1)CN(S(=O)(=O)c1ccccc1F)C2` (racemic) [Example 45, 2-[2-(2-fluorophenyl)sulfonyl-2-azaspiro[3,3]heptan-6-yl]-1-methyl-4,5-dihydro-1H-2-benzazepin-3-one], 214 nM; to `CC1c2ccccc2OCC(=O)N1C1CC2(C1)CN(S(=O)(=O)c1ccccc1F)C2` (racemic) [Example 46], 129 nM. Take `CC1c2ccccc2NCC(=O)N1C1CC2(C1)CN(S(=O)(=O)c1ccccc1F)C2` (racemic) [Example 47]: half-maximal inhibition (IC50) was put at 544 nM. In turn, `CC1COc2cccnc2C(=O)N1C1CC2(C1)CN(S(=O)(=O)c1ccccc1F)C2` (racemic) [Example 49] gave an IC50 of 6 nM. Consider `CCC1COc2cccnc2C(=O)N1C1CC2(C1)CN(S(=O)(=O)c1ccccc1F)C2` (racemic) [Example 50], for which it took 19 nM to reach half-maximal inhibition (IC50). Against the preceding compound, the IC50 is about 3.2-fold higher.

`CC1COc2ccncc2C(=O)N1C1CC2(C1)CN(S(=O)(=O)c1ccccc1F)C2` (racemic) [Example 51] showed an IC50 of 8 nM. In turn, `CCC1COc2ccncc2C(=O)N1C1CC2(C1)CN(S(=O)(=O)c1ccccc1F)C2` (racemic) [Example 52] displayed an IC50 of 22 nM. Compared with the last compound, the IC50 is about 2.8-fold higher. `CC1COc2cnccc2C(=O)N1C1CC2(C1)CN(S(=O)(=O)c1ccccc1F)C2` (racemic) [Example 54] displayed an IC50 of 14 nM. This IC50 is about 1.6-fold lower than that of the compound before. As to `CCC1COc2ncccc2C(=O)N1C1CC2(C1)CN(S(=O)(=O)c1ccccc1F)C2` (racemic) [Example 59], the IC50 stood at 33 nM. To `CC1COc2ncccc2C(=O)N1C1CC2(C1)CN(S(=O)(=O)c1ccccc1F)C2` (racemic) [Example 63] belongs 22 nM; to `CC1COc2ccsc2C(=O)N1C1CC2(C1)CN(S(=O)(=O)c1ccccc1F)C2` (racemic) [Example 64], 10 nM; to `CC1Cc2cccnc2C(=O)N1C1CC2(C1)CN(S(=O)(=O)c1ccccc1F)C2` (racemic) [Example 65], 27 nM. The compound `CC1Cc2ncccc2C(=O)N1C1CC2(C1)CN(S(=O)(=O)c1ccccc1F)C2` (racemic) [Example 66] returned an IC50 of 31 nM. `CC1Cc2nc(C(F)(F)F)ccc2C(=O)N1C1CC2(C1)CN(S(=O)(=O)c1ccccc1F)C2` (racemic) [Example 67] came in with a half-inhibitory concentration (IC50) of 77 nM.

`CC1Cc2ccccc2OC(=O)N1C1CC2(C1)CN(S(=O)(=O)c1ccccc1F)C2` (racemic) [Example 71] registered a 50% inhibitory concentration (IC50) of 126 nM. This IC50 is about 1.6-fold higher than that of the compound before. To `CC1COc2ncccc2C(=O)N1C1CC2(C1)CN(S(=O)(=O)c1cccc(F)c1)C2` (racemic) [Example 72] belongs 841 nM; to `CC1COc2ncccc2C(=O)N1C1CC2(C1)CN(S(=O)(=O)c1ccccc1Cl)C2` (racemic) [Example 73], 92 nM. The compound `COc1cccc(S(=O)(=O)N2CC3(CC(N4C(=O)c5cccnc5OCC4C)C3)C2)c1` (racemic) [Example 74] showed an IC50 of 918 nM. This IC50 lies about 10-fold higher than the previous one.

`COc1ccc(S(=O)(=O)N2CC3(CC(N4C(=O)c5cccnc5OCC4C)C3)C2)cc1` (racemic) [Example 75] displayed a half-maximal inhibitory concentration (IC50) of 120 nM. For the compound `Cc1ccccc1S(=O)(=O)N1CC2(CC(N3C(=O)c4cccnc4OCC3C)C2)C1` (racemic) [Example 76], the half-maximal inhibitory concentration (IC50) was found to be 566 nM. The same measure for `Cc1cccc(S(=O)(=O)N2CC3(CC(N4C(=O)c5cccnc5OCC4C)C3)C2)c1` (racemic) [Example 77]: 324 nM.
